# In US20250011738A1, “HEAT TOLERANT ALKALINE PHOSPHATASE” (BiomEdit, LLC, priority 2021, published 2025):
# Where two headings read alike, the source gives them in different places.
# Target: T1, Paenibacillus lentus alkaline phosphatase AP1 heat tolerant mutant APHT (designated "HT"), 16 amino acid changes from AP1, SEQ ID NO: 1 (Paenibacillus lentus, UniProt A0A3Q8S6G4, A163G/A247P/A302M/D102S/D304A/F110I/G290A/K198N/K66I/L136H/S105A/S168N/S338G/S535E/T223N/V100I/Y117N)
# T1 sequence (A0A3Q8S6G4 34-572 K66I/V100I/D102S/S105A/F110I/Y117N/L136H/A163G/S168N/K198N/T223N/A247P/G290A/A302M/D304A/S338G/S535E): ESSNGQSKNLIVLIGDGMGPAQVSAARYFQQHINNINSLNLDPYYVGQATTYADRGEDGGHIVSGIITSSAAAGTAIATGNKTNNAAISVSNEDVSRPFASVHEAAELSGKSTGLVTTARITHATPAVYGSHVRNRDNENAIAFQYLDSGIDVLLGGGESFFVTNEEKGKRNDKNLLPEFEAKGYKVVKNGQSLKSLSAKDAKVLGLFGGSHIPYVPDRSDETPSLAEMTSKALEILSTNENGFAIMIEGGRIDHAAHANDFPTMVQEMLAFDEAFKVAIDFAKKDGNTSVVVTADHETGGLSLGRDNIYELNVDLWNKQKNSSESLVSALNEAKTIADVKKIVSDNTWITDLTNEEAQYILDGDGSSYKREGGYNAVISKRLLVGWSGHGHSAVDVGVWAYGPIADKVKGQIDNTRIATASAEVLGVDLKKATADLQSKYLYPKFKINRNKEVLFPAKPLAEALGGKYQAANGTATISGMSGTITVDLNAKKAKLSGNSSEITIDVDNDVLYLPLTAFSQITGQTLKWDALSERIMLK
# Type: biochemical
# Description: FIG. 7 presents effect of pH on (A)Vmax (IU/mg) and (B) KM (μM) activity of AP1 (designated “Native”) and APHT (designated “HT”). Assays were performed at 40° C. with p-NPP as substrate in the concentration range 0-5 mM. The enzyme concentration was 2.5 μg/mL for the pH 8 and 0.4 mg/mL for pH 9-13).
# FIG. 8 presents effect of pH on (A)Vmax (IU/mg) and (B) KM (μM) activity of AP1 (designated “Native”) and APHT (designated “HT”). Assays were performed at 50° C. with p-NPP as substrate in the concentration range 0-5 mM. The enzyme concentration was 2.5 μg/mL for the pH 8 and 0.4 mg/mL for pH 9-13).
# To further improve the thermal stability, a set of synthetic alkaline phosphatase genes where each amino acid was mutated to other possibilities one at a time was constructed and evaluated. […] In FIG. 5A, the AP1 with a serine mutation is designated as “AP Native” and is depicted in sequence with a leader sequence […] (SEQ ID NO:13). The AP1 with leader sequence […] is provided in SEQ ID NO:14). The APHT polypeptide with leader sequence […] is provided in SEQ ID NO:15). In FIG. 5B, the AP1 with a serine mutation and without any leader sequence or leader peptide amino acids (SEQ ID NO:4) is aligned and compared with the APHT without any leader sequence or leader peptide amino acids (SEQ ID NO:1). The 16 amino acid changes in APHT are evident. The APHT amino acid sequence (excluding and without any leader sequence and starting with amino acids ESSN) is 97% identical to the sequence of AP1 (excluding and without any leader sequence and starting with amino acids ESSN).
# The APHT sequence (SEQ ID NO: 1) is provided below with the amino acid mutations versus the AP1 sequence underlined and in bold.
# • 1 M DEA Buffer pH 10. Dissolve 10.5 g of diethanolamine in to 100 ml of water. The pH adjust with 1 M hydrochloric acid or 1 M NaOH. Filter sterilize and store at 4 C. • 0.5 M Tris Base Buffer pH 10 and 8. Dissolve 6.06 g of Tris in to 100 ml of water. The pH adjust with 1 M hydrochloric acid or 1 M NaOH. Filter sterilize and store at 4 C. • 0.1 M Borate Buffer pH 11 and 12. Dissolve 0.62 g Boric acid, 0.44 g NaCl and Sodium tetraborate 0.95 g in 100 ml H2O. The pH adjust with 1 M hydrochloric acid or 1 M NaOH. Filter sterilize and store at 4 C. • 1 M KCl/NaOH Buffer pH 13. Dissolve 7.4 g KCl in 100 ml water. The pH adjust with 1 M NaOH. Filter sterilize and store at 4 C. • 1 M MgCl2, 23.8 g MgCl2 anhydrous in […] water. Filter sterilize and store at 4 C 3. Activity Assay: p-NPP Substrate
# Reactions were carried out at 40° C. using 50 mM Tris buffer pH 7 with 50 mM MgCl2 and at 50° C. using 50 mM DEA buffer pH 10 with 50 mM MgCl2. Enzyme was thawed, aliquoted in 500 μL vials and freeze at −80° C. For 100 μL volume of reaction, components were mixed in 96-well microplate (Fisher 12565501) following the order in TABLE 1. Every reaction condition was done by triplicated at least.
# After the adding enzyme, the absorption of product was followed at 405 nm over 5 min in a M5 plate reader with intervals of 20 s. Initial rate was determined for each curve and product formed calculated using the extinction coefficient of 18.5 mM^−1·cm^−1 and a calculated pathlength of 0.5 cm. Initial rates where fitted to Michalis Menten model built in the Kaleidagraph software.
# pH effect on enzyme activity was tested at 40 and 50° C. in the corresponding buffer with 50 mM MgCl2 using p-NPP as substrate in the concentration range 0-5.0 mM. The reaction started with the addition of enzyme (2.5 μg/mL for pH 8 and 0.4 μg/mL for pH 9-13) and the absorption at 405 nm was followed for 5 min. Every reaction condition was done by triplicated at least.
smiles,measurement,setting,value
"O=[N+]([O-])c1ccc(OP(=O)(O)O)cc1 [p-NPP, p-nitrophenylphosphate]",Km,"40° C., Borate pH 11",12200 µM
same,Km,"40° C., Borate pH 12",498 µM
same,Km,"40° C., DEA pH 10",2540 µM
same,Km,"40° C., Tris pH 8",46 µM
same,Km,"40° C., Tris pH 9",992 µM
same,Km,"50° C., Borate pH 11",12200 µM
same,Km,"50° C., Borate pH 12",1080 µM
same,Km,"50° C., DEA pH 10",2540 µM
same,Km,"50° C., KCl/NaOH (pH printed 204; Table 2: 13.0)",498 µM
same,Km,"50° C., Tris pH 8",45 µM
same,Km,"50° C., Tris pH 9",992 µM
